For three compounds, IC50 and Kd results are on record in paper PMC9780064, “Structural analysis of cannabinoids against EGFR-TK leads a novel target against EGFR-driven cell lines” (Current Research in Pharmacology and Drug Discovery, 2022).

The IC50 is the point on the concentration scale where inhibition reaches its midpoint. In general, Kd refers to the constant that tells how readily two partners part at equilibrium.

In assay [1] the target is T1, EGFR-TK (tyrosine kinase domain of EGFR) (Homo sapiens, UniProt P00533).
T1 construct: cloned into pCold I, expressed in E. coli Rosetta (DE3); DEAE, Resource Q and Superdex 200 purification; immobilised by amine coupling for SPR
Kind of assay: ADP-Glo kinase assay, poly(Glu:Tyr) substrate. The conditions noted are these: read-out: EGFR-TK inhibition IC50. The assay is classed as biochemical. A general note: ADP-Glo turns the ADP formed in a reaction into a luminescent signal.

Assay [2] concerns the target T1, EGFR-TK (tyrosine kinase domain of EGFR). Kind of assay: SPR (OpenSPR), immobilised EGFR-TK, […] Langmuir kinetic fit. The format is binding.

T1 sequence (P00533 696-1022 limits assumed): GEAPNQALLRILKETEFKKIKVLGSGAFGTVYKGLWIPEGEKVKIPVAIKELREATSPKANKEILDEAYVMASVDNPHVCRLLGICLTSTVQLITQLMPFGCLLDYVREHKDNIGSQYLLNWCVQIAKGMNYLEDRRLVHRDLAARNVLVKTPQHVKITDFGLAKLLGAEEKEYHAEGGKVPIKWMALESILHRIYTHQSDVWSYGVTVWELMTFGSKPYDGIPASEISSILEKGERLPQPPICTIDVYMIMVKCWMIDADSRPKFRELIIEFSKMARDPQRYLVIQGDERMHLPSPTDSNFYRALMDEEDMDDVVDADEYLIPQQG

As for `C=C(C)[C@@H]1CCC(C)=C[C@H]1c1c(O)cc(CCCCC)cc1O` [CBD], in assay [1], the IC50 is 32.6 ± 3.16 nM. Further, the Kd in assay [2] turned out to be 8350 nM.
For the compound `CCCCCc1cc(O)c(C/C=C(\C)CCC=C(C)C)c(O)c1` [CBG], the IC50 in assay [1] was 29.9 ± 2.1 nM. The compound further registered a Kd in assay [2] of 5610 nM.
`CCCCCc1cc(O)c2c(c1)OC(C)(C)c1ccc(C)cc1-2` [CBN]: in assay [1], the IC50 turned out to be 78.8 ± 2.2 nM. Moreover, binding in assay [2] was put at a Kd of 32100 nM.
